Our source for the IC50 and Ki values is patent US9604944B2, “Arylpiperazine derivatives and methods of utilizing same” (REVIVA PHARMACEUTICALS, INC., priority 2009, dated 2017).

Test [1] addresses serotonin 5-HT2A receptor (Human Cortex) (Homo sapiens (Human), UniProt P28223). The experiment in a line: Serotonin, 5HT2A (human) binding assay. To be noted: radioligand [3H]-Ketanserin. The method, then:
Serotonin, 5HT2A (human) binding assay
Materials and Methods: • Receptor Source: Human Cortex • Radioligand: [^3H]-Ketanserin (60-90 Ci/mmol) • Control Compound: Ketanserin • Incubation Conditions: The reactions were carried out in 50 mM TRIS-HCl (pH 7.6) at room temperature for 90 minutes. The reaction was terminated by rapid vacuum filtration onto glass fiber filters. Radioactivity trapped onto the filters was determined and compared to control values in order to ascertain any interactions of test compounds with the serotonin-5HT2A binding site (Literature Reference: Leysen, J. E. et al. Mol. Pharmacol. 1982, 21, 301-314; Martin, G. R. and Humphrey, P. P. A. Neuropharmacol. 1994, 33(3/4), 261-273.)
(§1) The radioligand binding assays for dopamine-D2S, serotonin-5HT1A and serotonin-5HT2A were carried out at six different concentrations and the test concentrations were 0.5 nM, 1 nM, 10 nm, 100 nM, 300 nM and 1000 nM.

Test [2] has as its target dopamine D2S receptor (human recombinant expressed in CHO cells) (Homo sapiens (Human), UniProt P14416). Nature of the test: Dopamine, D2S (human recombinant) binding assay. To be noted: radioligand [3H]Spiperone. The method, then:
Dopamine, D2S (human recombinant) binding assay
Materials and Methods: • Receptor Source: Human recombinant expressed in CHO cells • Radioligand: [^3H]Spiperone (20-60 Ci/mmol) • Control Compound: Haloperidol • Incubation Conditions: The reactions were carried out in 50 mM TRIS-HCl (pH 7.4) containing 120 mM NaCl, 5 mM KCl, 5 mM MgCl2, 1 mM EDTA for 60 minutes at 25 C. The reaction was terminated by rapid vacuum filtration onto glass fiber filters. Radioactivity trapped onto the filters was determined and compared to control values in order to ascertain any interactions of test compounds with the cloned dopamine—D2 short binding site (Literature Reference: Jarvis, K. R. et al. Journal of Receptor Research 1993, 13(1-4), 573-590; Gundlach, A. L. et al. Life Sciences 1984, 35, 1981-1988.)
as §1

The target in test [3] is serotonin 5-HT1A receptor (human recombinant expressed in HEK-293 cells) (Homo sapiens (Human), UniProt P08908). The experiment in a line: Serotonin, 5HT1A (human recombinant) binding assay. The settings on record: radioligand [3H]-8-OH-DPAT; human recombinant in HEK-293 cells. The method, then:
Serotonin, 5HT1A (human recombinant) binding assay
Materials and Methods: • Receptor Source: Human recombinant expressed in HEK-293 cells • Radioligand: [^3H]-8-OH-DPAT (221 Ci/mmol) • Control Compound: 8-OH-DPAT • Incubation Conditions: The reactions were carried out in 50 mM TRIS-HCl (pH 7.4) containing 10 mM MgSO4, 0.5 mM EDTA and 0.1% Ascorbic acid at room temperature for 1 hour. The reaction was terminated by rapid vacuum filtration onto glass fiber filters. Radioactivity trapped onto the filters was determined and compared to control values in order to ascertain any interactions of test compounds with the cloned serotonin—5HT1A binding site (Literature Reference: Hoyer, D. et al. Eur. Journal Pharmacol. 1985, 118, 13-23; Schoeffter, P. and Hoyer, D. Naunyn-Schmiedeberg's Arch. Pharmac. 1989, 340, 135-138)
as §1

pIC50, pKi: −log10 of the molar value. Counter-ions that a name gives are not always drawn.

serotonin 5-HT2A receptor (Human Cortex), sequence (P28223 whole entry): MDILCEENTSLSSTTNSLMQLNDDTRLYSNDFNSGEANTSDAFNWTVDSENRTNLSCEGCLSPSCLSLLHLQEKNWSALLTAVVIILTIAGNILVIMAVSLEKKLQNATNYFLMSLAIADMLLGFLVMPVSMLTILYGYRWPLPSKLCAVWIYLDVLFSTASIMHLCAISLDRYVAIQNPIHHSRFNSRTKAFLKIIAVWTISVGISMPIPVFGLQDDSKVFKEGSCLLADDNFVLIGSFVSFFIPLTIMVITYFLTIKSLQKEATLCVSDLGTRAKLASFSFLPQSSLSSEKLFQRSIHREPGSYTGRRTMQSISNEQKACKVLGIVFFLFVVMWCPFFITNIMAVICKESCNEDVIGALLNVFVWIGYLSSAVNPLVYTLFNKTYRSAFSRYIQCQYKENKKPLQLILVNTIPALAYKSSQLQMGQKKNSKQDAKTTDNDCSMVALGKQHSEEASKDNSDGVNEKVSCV
serotonin 5-HT1A receptor (human recombinant expressed in HEK-293 cells), sequence (P08908 whole entry): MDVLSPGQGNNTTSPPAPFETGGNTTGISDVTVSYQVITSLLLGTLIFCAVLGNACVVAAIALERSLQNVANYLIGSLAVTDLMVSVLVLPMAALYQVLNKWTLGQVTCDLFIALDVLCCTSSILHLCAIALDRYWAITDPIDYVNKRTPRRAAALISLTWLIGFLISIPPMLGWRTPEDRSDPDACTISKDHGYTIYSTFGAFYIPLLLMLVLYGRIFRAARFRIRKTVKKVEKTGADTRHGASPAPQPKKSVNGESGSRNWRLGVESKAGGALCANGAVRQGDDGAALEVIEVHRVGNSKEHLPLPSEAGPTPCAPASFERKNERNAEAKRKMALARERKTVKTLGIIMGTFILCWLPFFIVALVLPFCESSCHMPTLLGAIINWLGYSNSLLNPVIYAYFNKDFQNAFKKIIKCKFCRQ
dopamine D2S receptor (human recombinant expressed in CHO cells), sequence (P14416 other isoform, or with tags, fused parts or gaps): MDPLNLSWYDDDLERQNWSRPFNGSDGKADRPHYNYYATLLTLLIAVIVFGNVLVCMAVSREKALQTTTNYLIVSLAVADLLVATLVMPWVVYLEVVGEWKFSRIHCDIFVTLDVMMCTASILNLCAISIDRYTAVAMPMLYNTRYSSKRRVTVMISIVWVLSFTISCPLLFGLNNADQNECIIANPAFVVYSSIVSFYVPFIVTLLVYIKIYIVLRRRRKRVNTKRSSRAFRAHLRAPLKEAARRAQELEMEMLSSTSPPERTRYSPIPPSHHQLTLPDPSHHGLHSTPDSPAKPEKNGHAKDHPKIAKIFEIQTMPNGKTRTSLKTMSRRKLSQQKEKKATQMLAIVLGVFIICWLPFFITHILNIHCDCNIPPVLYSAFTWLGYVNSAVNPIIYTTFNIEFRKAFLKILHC

Usually pIC50 stands for −log10 of the IC50, conventionally taken in molar units. A word on the pKi: it is −log10 of the Ki, conventionally taken in molar units. Regarding `COc1ccccc1N1CCN(CCCCOc2ccc3c(c2)NC(=O)CO3)CC1` [Compound 15a, 6-(4-(4-(2-Methoxyphenyl)piperazin-1-yl)butoxy)-2H-benzo[b][1,4]oxazin-3(4H)-one hydrochloride], the figures for the pIC50 in test [1], in test [2] and in test [3] were 6.58, 9.01 and 9.01, respectively. Moreover, the negative logarithm of the Ki (pKi) in test [1] was 6.93; in test [2], 9.52; in test [3], 9.19.
`O=C1COc2ccc(OCCCCN3CCN(c4cccc(Cl)c4Cl)CC3)cc2N1` [Compound 15b, 6-(4-(4-(2,3-Dichlorophenyl)piperazin-1-yl)butoxy)-2H-benzo[b][1,4]oxazin-3(4H)-one hydrochloride]: the negative-log IC50 (pIC50) is 6.89 in test [1] and 8.65 in test [3]. In addition, the negative-log Ki (pKi) was 7.23 in test [1] and 8.82 in test [3].
